SMILES strings stand for the structures. Bounds are passed on as bounds.

The target of one assay is adenosine A2B receptor (Homo sapiens (Human), UniProt P29275). Kind of assay: Adenosine receptor activity assay (Table 1), A2B activity. To be noted: for Ratio: A2A activity to A2B activity (A2A/A2B); for IC50: read-out: Ave A2B cAMP IC50. The assay is classed as biochemical.
For a further assay, the target named is adenosine A2A receptor (Homo sapiens (Human), UniProt P29274). Kind of assay: Adenosine receptor activity assay (Table 1), A2A activity. In kind it is biochemical. To be noted: read-out: Ave A2A cAMP IC50.
Chain of adenosine A2A receptor (P29274 whole entry): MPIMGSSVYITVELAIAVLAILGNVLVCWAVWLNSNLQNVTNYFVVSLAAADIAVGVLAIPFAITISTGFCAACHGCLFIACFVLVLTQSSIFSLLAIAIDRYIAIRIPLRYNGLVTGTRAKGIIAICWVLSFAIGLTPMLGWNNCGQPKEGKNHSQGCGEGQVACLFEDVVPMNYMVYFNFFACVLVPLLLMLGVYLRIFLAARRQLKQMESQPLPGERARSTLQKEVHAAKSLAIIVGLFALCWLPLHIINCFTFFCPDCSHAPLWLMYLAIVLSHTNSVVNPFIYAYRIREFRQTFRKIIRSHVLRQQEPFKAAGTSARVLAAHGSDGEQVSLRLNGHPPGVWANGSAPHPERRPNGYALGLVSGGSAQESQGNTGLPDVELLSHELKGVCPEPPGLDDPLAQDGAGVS

Chain of adenosine A2B receptor (P29275 whole entry): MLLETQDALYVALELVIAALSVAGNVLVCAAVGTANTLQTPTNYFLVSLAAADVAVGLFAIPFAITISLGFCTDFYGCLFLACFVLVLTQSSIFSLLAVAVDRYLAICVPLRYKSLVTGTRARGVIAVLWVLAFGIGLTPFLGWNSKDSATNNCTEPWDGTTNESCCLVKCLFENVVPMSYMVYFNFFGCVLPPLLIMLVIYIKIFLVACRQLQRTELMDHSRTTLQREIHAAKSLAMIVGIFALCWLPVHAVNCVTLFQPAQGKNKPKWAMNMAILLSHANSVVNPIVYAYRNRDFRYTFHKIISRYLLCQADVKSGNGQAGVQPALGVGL

Usually IC50 stands for the point on the concentration scale where inhibition reaches its midpoint. As for `COC[C@H](Nc1nc(C(=O)NC[C@@H](C)O)c2sccc2n1)c1cccnc1` [Example Z325, N—((R)-2-Hydroxypropyl)-2-(((R)-2-methoxy-1-(pyridin-3-yl)ethyl)amino)thieno[3,2-d]pyrimidine-4-carboxamide], on adenosine A2B receptor, the Ratio worked out at 1.87 and the IC50 is over 500 nM. For the same compound, the IC50 on adenosine A2A receptor is over 500 nM.

For `CC(=O)N[C@H]1CCN(C(=O)c2nc(NCc3cncc(F)c3)nc3ccsc23)C1` [Example Z330, (S)—N-(1-(2-(((5-Fluoropyridin-3-yl)methyl)amino)thieno[3,2-d]pyrimidine-4-carbonyl)pyrrolidin-3-yl)acetamide], the Ratio on adenosine A2B receptor was found to be 196.86. The IC50 at adenosine A2B receptor is under 10 nM; at adenosine A2A receptor, over 500 nM.

`C[C@H](NC(=O)c1nc(N[C@@H](C)c2ccncc2)nc2ccsc12)c1ccncc1` [Example Z338, N—((S)-1-(Pyridin-4-yl)ethyl)-2-(((S)-1-(pyridin-4-yl)ethyl)amino)thieno[3,2-d]pyrimidine-4-carboxamide]: on adenosine A2B receptor, the Ratio is recorded as 1.50 and the IC50 was in the range of 100 to 500 nM. In addition, at adenosine A2A receptor, the IC50 is over 500 nM.

In the case of `C[C@H](Nc1nc(C(=O)NCCC2CCN(C(=O)OC(C)(C)C)CC2)c2sccc2n1)c1ccccn1` [Example Z342, tert-Butyl (S)-4-(2-(2-((1-(Pyridin-2-yl)ethyl)amino)thieno[3,2-d]pyrimidine-4-carboxamido)ethyl)piperidine-1-carboxylate], at adenosine A2B receptor, the Ratio is 2.11 and the IC50 fell in the range of 100 to 500 nM. The IC50 on adenosine A2A receptor is 100 to 500 nM.

Regarding `C[C@H](Nc1nc(C(=O)NCCC2CCN(C(=O)OC(C)(C)C)CC2)c2sccc2n1)c1cncc(F)c1` [Example Z343, tert-Butyl (S)-4-(2-(2-((1-(5-Fluoropyridin-3-yl)ethyl)amino)thieno[3,2-d]pyrimidine-4-carboxamido)ethyl)piperidine-1-carboxylate], the IC50 is 50 to 100 nM at adenosine A2B receptor and 100 to 500 nM on adenosine A2A receptor.

`C[C@H](Nc1nc(C(=O)N2CCCC2)c2sccc2n1)c1ccncc1` [Example Z344, (S)-(2-((1-(Pyridin-4-yl)ethyl)amino)thieno[3,2-d]pyrimidin-4-yl)(pyrrolidin-1-yl)methanone]: the Ratio at adenosine A2B receptor is 8.03. For the same compound, the IC50 at adenosine A2B receptor lay within 10 to 50 nM; at adenosine A2A receptor it was 100 to 500 nM.

As for `COc1ccc(CNC(=O)c2nc(N[C@@H](C)c3ccncc3)nc3ccsc23)cn1` [Example Z345, (S)—N-((6-Methoxypyridin-3-yl)methyl)-2-((1-(pyridin-4-yl)ethyl)amino)thieno[3,2-d]pyrimidine-4-carboxamide], at adenosine A2B receptor, the Ratio was found to be 1.41. Further, the IC50 on adenosine A2B receptor fell in the range of 50 to 100 nM; on adenosine A2A receptor, 100 to 500 nM.

On to `C[C@H](Nc1nc(C(=O)N2CC[C@@H](O)C2)c2sc(C(F)(F)F)cc2n1)c1ccccn1` [Example Z349, ((R)-3-Hydroxypyrrolidin-1-yl)(2-(((S)-1-(pyridin-2-yl)ethyl)amino)-6-(trifluoromethyl)thieno[3,2-d]pyrimidin-4-yl)methanone], for which, at adenosine A2B receptor, the Ratio came out at 46.63. For the same compound, the values for the IC50 at adenosine A2B receptor and on adenosine A2A receptor were 10 to 50 nM and over 500 nM, respectively.

On to `CO[C@H]1CCN(C(=O)c2nc(N[C@@H](C)c3cccnc3)nc3cc(C)sc23)C1` [Example Z350, ((S)-3-Methoxypyrrolidin-1-yl)(6-methyl-2-(((S)-1-(pyridin-3-yl)ethyl)amino)thieno[3,2-d]pyrimidin-4-yl)methanone], for which, at adenosine A2B receptor, the Ratio came out at 4.80 and the IC50 was in the range of 10 to 50 nM. At adenosine A2A receptor, the half-maximal inhibitory concentration (IC50) lay in the range of 100 to 500 nM.

With `CO[C@@H]1CCN(C(=O)c2nc(N[C@@H](C)c3cccnc3)nc3cc(C)sc23)C1` [Example Z351, ((R)-3-Methoxypyrrolidin-1-yl)(6-methyl-2-(((S)-1-(pyridin-3-yl)ethyl)amino)thieno[3,2-d]pyrimidin-4-yl)methanone], the Ratio at adenosine A2B receptor is listed as 10.17. The IC50 on adenosine A2B receptor was under 10 nM; on adenosine A2A receptor, 50 to 100 nM.

With `C[C@H](Nc1nc(C(=O)N2CCC(C(=O)OC(C)(C)C)C2)c2sccc2n1)c1cncc(F)c1` (stereo partly drawn) [Example Z354, tert-Butyl 1-(2-(((S)-1-(5-fluoropyridin-3-yl)ethyl)amino)thieno[3,2-d]pyrimidine-4-carbonyl)pyrrolidine-3-carboxylate], on adenosine A2B receptor, the Ratio was 6.35 and the IC50 was 10 to 50 nM. Further, the IC50 on adenosine A2A receptor lay in the range of 100 to 500 nM.

Turning to `C[C@H](Nc1nc(C(=O)N2CCC(C(=O)OC(C)(C)C)C2)c2sccc2n1)c1ccccn1` (stereo partly drawn) [Example Z355, tert-Butyl 1-(2-(((S)-1-(pyridin-2-yl)ethyl)amino)thieno[3,2-d]pyrimidine-4-carbonyl)pyrrolidine-3-carboxylate], on adenosine A2B receptor, the Ratio is given as 1.96 and the IC50 lay within 100 to 500 nM. For the same compound, the IC50 at adenosine A2A receptor is over 500 nM.

For the compound `C[C@H](Nc1nc(C(=O)NCCN2CCCC2)c2sccc2n1)c1ccccn1` [Example Z356, (S)-2-((1-(Pyridin-2-yl)ethyl)amino)-N-(2-(pyrrolidin-1-yl)ethyl)thieno[3,2-d]pyrimidine-4-carboxamide], on adenosine A2B receptor, the Ratio came out at 3.31 and the IC50 was over 500 nM. Further, the IC50 on adenosine A2A receptor is over 500 nM.

With `C[C@H](Nc1nc(C(=O)NCCN2CCCC2)c2sccc2n1)c1cncc(F)c1` [Example Z357, (S)-2-((1-(5-Fluoropyridin-3-yl)ethyl)amino)-N-(2-(pyrrolidin-1-yl)ethyl)thieno[3,2-d]pyrimidine-4-carboxamide], the Ratio at adenosine A2B receptor was 3.03. For the same compound, the IC50 at adenosine A2B receptor and at adenosine A2A receptor was over 500 nM each time.

Regarding `CNC1CN(C(=O)c2nc(NCc3cncc(F)c3)nc3ccsc23)C1` [Example Z358, (2-(((5-Fluoropyridin-3-yl)methyl)amino)thieno[3,2-d]pyrimidin-4-yl)(3-(methylamino)azetidin-1-yl)methanone], at adenosine A2B receptor, the Ratio stood at 69.69 and the IC50 fell in the range of 100 to 500 nM. The IC50 on adenosine A2A receptor was over 500 nM.

In the case of `O=C(c1nc(NCCc2ccc(O)cc2)nc2ccsc12)N1CCCC1` [Example Z359, (2-((4-Hydroxyphenethyl)amino)thieno[3,2-d]pyrimidin-4-yl)(pyrrolidin-1-yl)methanone], at adenosine A2B receptor, the Ratio was 2.57 and the IC50 fell in the range of 100 to 500 nM. In addition, on adenosine A2A receptor, the IC50 lay within 100 to 500 nM.

As to `N[C@H]1CCN(C(=O)c2nc(NCc3cncc(F)c3)nc3ccsc23)C1` [Example Z360, (S)-(3-Aminopyrrolidin-1-yl)(2-(((5-fluoropyridin-3-yl)methyl)amino)thieno[3,2-d]pyrimidin-4-yl)methanone], on adenosine A2B receptor, the Ratio is 72.24 and the IC50 was 100 to 500 nM. The IC50 on adenosine A2A receptor was over 500 nM.

In the case of `N[C@@H]1CCN(C(=O)c2nc(NCc3cncc(F)c3)nc3ccsc23)C1` [Example Z361, (R)-(3-Aminopyrrolidin-1-yl)(2-(((5-fluoropyridin-3-yl)methyl)amino)thieno[3,2-d]pyrimidin-4-yl)methanone], the Ratio at adenosine A2B receptor amounted to 28.33. Moreover, the IC50 was 100 to 500 nM on adenosine A2B receptor and over 500 nM on adenosine A2A receptor.

With `C[C@H](Nc1nc(C(=O)N2CC[C@H](N)C2)c2sccc2n1)c1cncc(F)c1` [Example Z362, ((S)-3-Aminopyrrolidin-1-yl)(2-(((S)-1-(5-fluoropyridin-3-yl)ethyl)amino)thieno[3,2-d]pyrimidin-4-yl)methanone], the Ratio on adenosine A2B receptor came to 95.57. In addition, the IC50 at adenosine A2B receptor was 10 to 50 nM; on adenosine A2A receptor it was over 500 nM.

`C[C@H](Nc1nc(C(=O)N2CC[C@H](N)C2)c2sccc2n1)c1ccccn1` [Example Z363, ((S)-3-Aminopyrrolidin-1-yl)(2-(((S)-1-(pyridin-2-yl)ethyl)amino)thieno[3,2-d]pyrimidin-4-yl)methanone]: on adenosine A2B receptor, the Ratio was found to be 23.53 and the IC50 was 100 to 500 nM. In addition, on adenosine A2A receptor, the IC50 is over 500 nM.

On to `C[C@H](Nc1nc(C(=O)N2CC[C@@H](N)C2)c2sccc2n1)c1ccccn1` [Example Z364, ((R)-3-Aminopyrrolidin-1-yl)(2-(((S)-1-(pyridin-2-yl)ethyl)amino)thieno[3,2-d]pyrimidin-4-yl)methanone], for which, on adenosine A2B receptor, the Ratio amounted to 11.16. Also, the values for the half-maximal inhibitory concentration (IC50) at adenosine A2B receptor and at adenosine A2A receptor were 100 to 500 nM and over 500 nM, respectively.

For the compound `C[C@H](Nc1nc(C(=O)NCCC2CCN(C(=O)OC(C)(C)C)C2)c2sccc2n1)c1cncc(F)c1` (stereo partly drawn) [Example Z365, tert-Butyl 3-(2-(2-(((S)-1-(5-fluoropyridin-3-yl)ethyl)amino)thieno[3,2-d]pyrimidine-4-carboxamido)ethyl)pyrrolidine-1-carboxylate], on adenosine A2B receptor, the Ratio was 2.19 and the 50% inhibitory concentration (IC50) lay in the range of 10 to 50 nM. The IC50 at adenosine A2A receptor is 50 to 100 nM.

On to `C[C@H](Nc1nc(C(=O)N2CC[C@@H](N)C2)c2sccc2n1)c1cccnc1` [Example Z366, ((R)-3-Aminopyrrolidin-1-yl)(2-(((S)-1-(pyridin-3-yl)ethyl)amino)thieno[3,2-d]pyrimidin-4-yl)methanone], for which the Ratio on adenosine A2B receptor is 1.86. For the same compound, the IC50 at adenosine A2B receptor and on adenosine A2A receptor was over 500 nM in each case.

Take `C[C@H](Nc1nc(C(=O)N2CC[C@H](N)C2)c2sccc2n1)c1cccnc1` [Example Z367, ((S)-3-Aminopyrrolidin-1-yl)(2-(((S)-1-(pyridin-3-yl)ethyl)amino)thieno[3,2-d]pyrimidin-4-yl)methanone]: the Ratio at adenosine A2B receptor amounted to 5.78. The IC50 on adenosine A2B receptor and at adenosine A2A receptor was over 500 nM throughout.

As to `O=C(NC[C@H]1CCCN1)c1nc(NCc2cncc(F)c2)nc2ccsc12` [Example Z369, (R)-2-(((5-Fluoropyridin-3-yl)methyl)amino)-N-(pyrrolidin-2-ylmethyl)thieno[3,2-d]pyrimidine-4-carboxamide], at adenosine A2B receptor, the Ratio is 2.26 and the IC50 was over 500 nM. The IC50 on adenosine A2A receptor is over 500 nM.

With `C[C@H](Nc1nc(C(=O)NC[C@H]2CCCN2)c2sccc2n1)c1ccccn1` [Example Z370, 2-(((S)-1-(pyridin-2-yl)ethyl)amino)-N—(((R)-pyrrolidin-2-yl)methyl)thieno[3,2-d]pyrimidine-4-carboxamide], at adenosine A2B receptor, the Ratio stood at 1.81 and the IC50 was over 500 nM. On adenosine A2A receptor, the IC50 was over 500 nM.

These data come from patent publication US11254686B1 (Corvus Pharmaceuticals, Inc., priority 2017, dated 2022).
